We go through ten compounds from patent publication US7820623B2 (priority 2006, dated 2010).

Assay [1] has as its system thapsigargin-induced IFN-g production in human whole blood. In kind it is cell-based.
The test system of assay [2] is thapsigargin-induced IL-2 production in human whole blood.
The mark [3] stands for this setting: read-out: Analogue Activity (IC50) WB/IFNg.
The mark [4] stands for this setting: read-out: Analogue Activity (IC50) WB/IL-2.

Read-outs that look alike come from different tables or passages of the source. Bridge positions count the residues as written; N and C are the ends. Square brackets hold non-standard residues; d marks the D form. Peptide text beside a SMILES is read from it. 1Nal = N[C@@H](Cc1cccc2ccccc12)C(=O)O

`CC[C@H](C)[C@@H]1NC(=O)[C@H](CCCCN)NC(=O)[C@@H](NC(=O)[C@H](CCCCN)NC(=O)[C@@H](NC(=O)[C@H](CC(N)=O)NC(=O)[C@@H](NC(=O)[C@H](CCCNC(=N)N)NC(=O)[C@@H](NC(=O)CN)C(C)C)[C@@H](C)CC)C(C)C)CSSC[C@@H]2NC(=O)[C@H](CCCCN)NC(=O)CNC(=O)[C@H](Cc3ccccc3)NC(=O)[C@H](CCCNC(=N)N)NC(=O)[C@H](CCSC)NC(=O)CNC(=O)[C@H](C)NC(=O)[C@H](CCCCN)NC(=O)[C@H](CCCCN)NC(=O)[C@@H]3CSSC[C@@H](C(=O)N[C@H](C(=O)N4CCC[C@H]4C(=O)N[C@@H](CCCCN)C(=O)O)[C@@H](C)O)NC(=O)[C@H](Cc4c[nH]cn4)NC(=O)[C@H](CSSC[C@H](NC(=O)[C@H](CCC(N)=O)NC(=O)[C@H](CCCNC(=N)N)NC(=O)[C@H](CO)NC1=O)C(=O)N[C@@H](CC(C)C)C(=O)N[C@@H](CCC(=O)O)C(=O)N1CCC[C@H]1C(=O)N3)NC(=O)[C@H](CCCCN)NC(=O)CNC(=O)[C@H](CC(N)=O)NC(=O)[C@H](CCSC)NC2=O` [I3R] (H-GVRINVKCKISRQCLEPCKKAGMRFGKCMNGKCHCTPK-OH; disulfide 8-28, 14-33, 18-35): the IC50 stood at 180 pM in assay [1] (setting [3]) and 148 pM in assay [2] (setting [4]).
Consider `CC[C@H](C)[C@@H]1NC(=O)[C@H](CCCCN)NC(=O)[C@@H](NC(=O)[C@H](CCCCN)NC(=O)[C@@H](NC(=O)[C@H](CC(N)=O)NC(=O)[C@@H](NC(=O)[C@@H](NC(=O)[C@@H](NC(=O)CN)C(C)C)[C@@H](C)CC)[C@@H](C)CC)C(C)C)CSSC[C@@H]2NC(=O)[C@H](CCCCN)NC(=O)CNC(=O)[C@H](Cc3ccccc3)NC(=O)[C@H](CCCNC(=N)N)NC(=O)[C@H](CCCNC(=N)N)NC(=O)CNC(=O)[C@H](C)NC(=O)[C@H](CCCCN)NC(=O)[C@H](CCCCN)NC(=O)[C@@H]3CSSC[C@@H](C(=O)N[C@H](C(=O)N4CCC[C@H]4C(=O)N[C@@H](CCCCN)C(=O)O)[C@@H](C)O)NC(=O)[C@H](Cc4c[nH]cn4)NC(=O)[C@H](CSSC[C@H](NC(=O)[C@H](CCC(N)=O)NC(=O)[C@H](CCCNC(=N)N)NC(=O)[C@H](CO)NC1=O)C(=O)N[C@@H](CC(C)C)C(=O)N[C@@H](CCC(=O)O)C(=O)N1CCC[C@H]1C(=O)N3)NC(=O)[C@H](CCCCN)NC(=O)CNC(=O)[C@H](CC(N)=O)NC(=O)[C@H](CCSC)NC2=O` [M23R] (H-GVIINVKCKISRQCLEPCKKAGRRFGKCMNGKCHCTPK-OH; disulfide 8-28, 14-33, 18-35), for which the values for the IC50 in assay [1] (setting [3]) and in assay [2] (setting [4]) were 148 pM and 182 pM, respectively.
The matching figures for `CC[C@H](C)[C@@H]1NC(=O)[C@H](CCCCN)NC(=O)[C@@H](NC(=O)[C@H](CCCCN)NC(=O)[C@@H](NC(=O)[C@H](CC(N)=O)NC(=O)[C@@H](NC(=O)[C@@H](NC(=O)[C@@H](NC(=O)CN)C(C)C)[C@@H](C)CC)[C@@H](C)CC)C(C)C)CSSC[C@@H]2NC(=O)[C@H](CCCCN)NC(=O)CNC(=O)[C@H](Cc3cccc4ccccc34)NC(=O)[C@H](CCCNC(=N)N)NC(=O)[C@H](CCSC)NC(=O)CNC(=O)[C@H](C)NC(=O)[C@H](CCCCN)NC(=O)[C@H](CCCCN)NC(=O)[C@@H]3CSSC[C@@H](C(=O)N[C@H](C(=O)N4CCC[C@H]4C(=O)N[C@@H](CCCCN)C(=O)O)[C@@H](C)O)NC(=O)[C@H](Cc4c[nH]cn4)NC(=O)[C@H](CSSC[C@H](NC(=O)[C@H](CCC(N)=O)NC(=O)[C@H](CCCNC(=N)N)NC(=O)[C@H](CO)NC1=O)C(=O)N[C@@H](CC(C)C)C(=O)N[C@@H](CCC(=O)O)C(=O)N1CCC[C@H]1C(=O)N3)NC(=O)[C@H](CCCCN)NC(=O)CNC(=O)[C@H](CC(N)=O)NC(=O)[C@H](CCSC)NC2=O` [F25Nal] (H-GVIINVKCKISRQCLEPCKKAGMR[1Nal]GKCMNGKCHCTPK-OH; disulfide 8-28, 14-33, 18-35): 1690 pM and 1730 pM.
The matching figures for `CC[C@H](C)[C@@H]1NC(=O)[C@H](CCCCN)NC(=O)[C@@H](NC(=O)[C@H](CCCCN)NC(=O)[C@@H](NC(=O)[C@H](CC(N)=O)NC(=O)[C@@H](NC(=O)[C@@H](NC(=O)[C@@H](NC(=O)[C@@H](N)CCCNC(=N)N)C(C)C)[C@@H](C)CC)[C@@H](C)CC)C(C)C)CSSC[C@@H]2NC(=O)[C@H](CCCCN)NC(=O)CNC(=O)[C@H](Cc3ccccc3)NC(=O)[C@H](CCCNC(=N)N)NC(=O)[C@H](CCSC)NC(=O)CNC(=O)[C@H](C)NC(=O)[C@H](CCCCN)NC(=O)[C@H](CCCCN)NC(=O)[C@@H]3CSSC[C@@H](C(=O)N[C@H](C(=O)N4CCC[C@H]4C(=O)N[C@@H](CCCCN)C(=O)O)[C@@H](C)O)NC(=O)[C@H](Cc4c[nH]cn4)NC(=O)[C@H](CSSC[C@H](NC(=O)[C@H](CCC(N)=O)NC(=O)[C@H](CCCNC(=N)N)NC(=O)[C@H](CO)NC1=O)C(=O)N[C@@H](CC(C)C)C(=O)N[C@@H](CCC(=O)O)C(=O)N1CCC[C@H]1C(=O)N3)NC(=O)[C@H](CCCCN)NC(=O)CNC(=O)[C@H](CC(N)=O)NC(=O)[C@H](CCSC)NC2=O` [G1R] (H-RVIINVKCKISRQCLEPCKKAGMRFGKCMNGKCHCTPK-OH; disulfide 8-28, 14-33, 18-35): 991 pM and 554 pM.
Take `CC[C@H](C)[C@@H]1NC(=O)[C@H](CCCCN)NC(=O)[C@@H](NC(=O)[C@H](CCCCN)NC(=O)[C@@H](NC(=O)[C@H](CC(N)=O)NC(=O)[C@@H](NC(=O)[C@@H](NC(=O)[C@@H](NC(=O)CN)C(C)C)[C@@H](C)CC)[C@@H](C)CC)C(C)C)CSSC[C@@H]2NC(=O)[C@H](CCCCN)NC(=O)CNC(=O)[C@H](Cc3ccccc3)NC(=O)[C@H](CCCNC(=N)N)NC(=O)[C@H](CCSC)NC(=O)CNC(=O)[C@H](CCCNC(=N)N)NC(=O)[C@H](CCCCN)NC(=O)[C@H](CCCCN)NC(=O)[C@@H]3CSSC[C@@H](C(=O)N[C@H](C(=O)N4CCC[C@H]4C(=O)N[C@@H](CCCCN)C(=O)O)[C@@H](C)O)NC(=O)[C@H](Cc4c[nH]cn4)NC(=O)[C@H](CSSC[C@H](NC(=O)[C@H](CCC(N)=O)NC(=O)[C@H](CCCNC(=N)N)NC(=O)[C@H](CO)NC1=O)C(=O)N[C@@H](CC(C)C)C(=O)N[C@@H](CCC(=O)O)C(=O)N1CCC[C@H]1C(=O)N3)NC(=O)[C@H](CCCCN)NC(=O)CNC(=O)[C@H](CC(N)=O)NC(=O)[C@H](CCSC)NC2=O` [A21R] (H-GVIINVKCKISRQCLEPCKKRGMRFGKCMNGKCHCTPK-OH; disulfide 8-28, 14-33, 18-35): the IC50 in assay [1] (setting [3]) amounted to 149 pM; in assay [2] (setting [4]), 90 pM.
In the same order, the values of `CC[C@H](C)[C@@H]1NC(=O)[C@H](CCCCN)NC(=O)[C@@H](NC(=O)[C@H](CCCCN)NC(=O)[C@@H](NC(=O)[C@H](CC(N)=O)NC(=O)[C@@H](NC(=O)[C@@H](NC(=O)[C@@H](NC(=O)CN)C(C)C)[C@@H](C)CC)[C@@H](C)CC)C(C)C)CSSC[C@@H]2NC(=O)[C@H](CCCCN)NC(=O)CNC(=O)[C@H](Cc3ccccc3)NC(=O)[C@H](CCCNC(=N)N)NC(=O)[C@H](CCSC)NC(=O)CNC(=O)[C@H](C)NC(=O)[C@H](CCCCN)NC(=O)[C@H](CCCCN)NC(=O)[C@@H]3CSSC[C@@H](C(=O)N[C@H](C(=O)N4CCC[C@H]4C(=O)N[C@@H](CCCCN)C(=O)O)[C@@H](C)O)NC(=O)[C@H](Cc4c[nH]cn4)NC(=O)[C@H](CSSC[C@H](NC(=O)[C@H](CCC(N)=O)NC(=O)[C@H](CCCNC(=N)N)NC(=O)[C@H](CO)NC1=O)C(=O)N[C@@H](CC(C)C)C(=O)N[C@@H](CCC(=O)O)C(=O)N[C@@H](CCCNC(=N)N)C(=O)N3)NC(=O)[C@H](CCCCN)NC(=O)CNC(=O)[C@H](CC(N)=O)NC(=O)[C@H](CCSC)NC2=O` [P17R] (H-GVIINVKCKISRQCLERCKKAGMRFGKCMNGKCHCTPK-OH; disulfide 8-28, 14-33, 18-35) are 355 pM and 202 pM.
In the same order, the values of `CC[C@H](C)[C@@H]1NC(=O)[C@H](CCCCN)NC(=O)[C@@H](NC(=O)[C@H](CCCCN)NC(=O)[C@@H](NC(=O)[C@H](CC(N)=O)NC(=O)[C@@H](NC(=O)[C@@H](NC(=O)[C@@H](NC(=O)CN)C(C)C)[C@@H](C)CC)[C@@H](C)CC)C(C)C)CSSC[C@@H]2NC(=O)[C@H](CCCCN)NC(=O)CNC(=O)[C@H](C)NC(=O)[C@H](CCCNC(=N)N)NC(=O)[C@H](CCSC)NC(=O)CNC(=O)[C@H](C)NC(=O)[C@H](CCCCN)NC(=O)[C@H](CCCCN)NC(=O)[C@@H]3CSSC[C@@H](C(=O)N[C@H](C(=O)N4CCC[C@H]4C(=O)N[C@@H](CCCCN)C(=O)O)[C@@H](C)O)NC(=O)[C@H](Cc4c[nH]cn4)NC(=O)[C@H](CSSC[C@H](NC(=O)[C@H](CCC(N)=O)NC(=O)[C@H](CCCNC(=N)N)NC(=O)[C@H](CO)NC1=O)C(=O)N[C@@H](CC(C)C)C(=O)N[C@@H](CCC(=O)O)C(=O)N1CCC[C@H]1C(=O)N3)NC(=O)[C@H](CCCCN)NC(=O)CNC(=O)[C@H](CC(N)=O)NC(=O)[C@H](CCSC)NC2=O` [F25A] (H-GVIINVKCKISRQCLEPCKKAGMRAGKCMNGKCHCTPK-OH; disulfide 8-28, 14-33, 18-35) are 3080 pM and 3080 pM.
Consider `CC[C@H](C)[C@H](NC(=O)[C@H](C)NC(=O)CN)C(=O)N[C@H](C(=O)N[C@@H](CC(N)=O)C(=O)N[C@H](C(=O)N[C@@H](CCCCN)C(=O)N[C@H]1CSSC[C@@H]2NC(=O)[C@H](CCCCN)NC(=O)CNC(=O)[C@H](Cc3ccccc3)NC(=O)[C@H](CCCNC(=N)N)NC(=O)[C@H](CCSC)NC(=O)CNC(=O)[C@H](C)NC(=O)[C@H](CCCCN)NC(=O)[C@H](CCCCN)NC(=O)[C@@H]3CSSC[C@@H](C(=O)N[C@H](C(=O)N4CCC[C@H]4C(=O)N[C@@H](CCCCN)C(=O)O)[C@@H](C)O)NC(=O)[C@H](Cc4c[nH]cn4)NC(=O)[C@H](CSSC[C@H](NC(=O)[C@H](CCC(N)=O)NC(=O)[C@H](CCCNC(=N)N)NC(=O)[C@H](CO)NC(=O)[C@H]([C@@H](C)CC)NC(=O)[C@H](CCCCN)NC1=O)C(=O)N[C@@H](CC(C)C)C(=O)N[C@@H](CCC(=O)O)C(=O)N1CCC[C@H]1C(=O)N3)NC(=O)[C@H](CCCCN)NC(=O)CNC(=O)[C@H](CC(N)=O)NC(=O)[C@H](CCSC)NC2=O)C(C)C)[C@@H](C)CC` [V2A] (H-GAIINVKCKISRQCLEPCKKAGMRFGKCMNGKCHCTPK-OH; disulfide 8-28, 14-33, 18-35), for which the IC50 in assay [1] (setting [3]) was found to be 104 pM; in assay [2] (setting [4]), 88.4 pM.
Turning to “GVIINVKCKISRQCLEPCKKAGMRFGACMNGKCHCTPK [Ala-27 (SEQ ID No: 1423)]”, the values for the IC50 in assay [1] (read-out: Average IC50 IFNg) and in assay [2] (read-out: Average IC50 IL-2) were 1580 pM and 3450 pM, respectively.
In the same order, the values of “GAIINVKCKISRQCLEPCKKAGMRFGKCMNGKCHCTPK [Ala-2 (SEQ ID No: 1401)]” are 104 pM and 88.4 pM.
